Source: patent publication US20250304563A1, “ACTIVATORS OF EFFECTOR T CELLS” (Orum Therapeutics, Inc., priority 2022, published 2025)
pIC50: −log10 of the molar value.

Assays:
[1] = system: Human primary T cells; test: T cell activation: secreted IL-2; format: cell-based; details: 48 hours, fold over background normalized to Compound 141A; for IL-2 1 nM: 1 nM compound; for IL-2 10 nM: 10 nM compound; for IL-2 100 nM: 100 nM compound
Summary of the method: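 Negatively selected human primary T cells on plate-bound anti-CD3 (OKT3) in serum-free medium, treated 48 h at 37° C. with serial compound dilutions in duplicate. Secreted IL-2 by bead-based cytometric assay, expressed as fold over anti-CD3/CD28 background normalized to a reference compound, then binned into ranges.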

[2] = system: Human primary T cells; test: T cell activation: CD69 surface expression by flow cytometry; format: cell-based; details: fold over anti-CD3 stimulated background normalized to Compound 141A; for CD69 1 nM: 1 nM compound; for CD69 10 nM: 10 nM compound; for CD69 100 nM: 100 nM compound
Summary of the method: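 Negatively selected human primary T cells (1×10^5/well, XVivo-15) were captured on plates coated with 10 μg/mL anti-CD3 (OKT3). They were exposed to serially diluted compounds in duplicate for 48 h at 37° C. CD69 was read by flow cytometry as fold over anti-CD3-only background, normalized to Compound 141A and binned into ranges.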

[3] = biological target: Cbl-b (36-427 aa truncated form, N-terminus Avi-tag) (Homo sapiens (Human), UniProt Q13191); test: Cbl-b binding: TR-FRET displacement of BODIPY-FL probe
Summary of the method: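 Avi-tagged Cbl-b 36-427 preincubated 1 h at RT with streptavidin-terbium in HEPES pH 7.5/NaCl/Triton/BSA/TCEP buffer, then 1 uM BODIPY-FL inhibitor probe plus compound added for 1 h. Probe displacement read by TR-FRET; IC50 fitted.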

[4] = system: Human primary T cells; test: T cell activation: secreted IFN-y; format: cell-based; details: 48 hours, fold over background normalized to Compound 141A; for IFN-y 1 nM: 1 nM compound; for IFN-y 10 nM: 10 nM compound; for IFN-y 100 nM: 100 nM compound
Summary of the method: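 Negatively selected primary human T cells (1×10^5/well, serum-free XVivo-15) on plates coated with 10 μg/mL anti-CD3 were exposed to serial compound dilutions for 48 h at 37 °C. Secreted IFN-γ was measured by cytometric bead array and expressed as fold over anti-CD3/CD28 background, normalized to a reference compound and binned into ranges A–D.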

Sequence of Cbl-b (36-427 aa truncated form, N-terminus Avi-tag) (Q13191 36-427): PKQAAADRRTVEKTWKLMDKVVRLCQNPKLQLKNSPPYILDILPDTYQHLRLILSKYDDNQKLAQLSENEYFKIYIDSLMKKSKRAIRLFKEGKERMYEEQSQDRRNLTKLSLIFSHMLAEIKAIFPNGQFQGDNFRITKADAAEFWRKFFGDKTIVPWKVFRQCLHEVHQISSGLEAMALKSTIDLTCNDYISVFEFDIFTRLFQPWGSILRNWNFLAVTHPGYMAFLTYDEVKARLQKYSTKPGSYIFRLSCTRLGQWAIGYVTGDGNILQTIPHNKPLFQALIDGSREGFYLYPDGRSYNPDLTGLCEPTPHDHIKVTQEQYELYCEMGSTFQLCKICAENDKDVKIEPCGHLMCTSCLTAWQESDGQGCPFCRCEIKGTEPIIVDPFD

| Compound | IL-2 1 nM [1] | IL-2 10 nM [1] | IL-2 100 nM [1] | CD69 1 nM [2] | CD69 10 nM [2] | CD69 100 nM [2] | pIC50 [3] | IFN-y 1 nM [4] | IFN-y 10 nM [4] | IFN-y 100 nM [4] |
| --- | --- | --- | --- | --- | --- | --- | --- | --- | --- | --- |
| CCNc1cc([C@]2(c3nncn3C)C[C@H](C)C2)cc(N2Cc3ncc(CN4CCC[C@H](C)C4)cc3C2=O)n1 [Compound 176, 6-[6-(ethylamino)-4-[(1r,3s)-3-methyl-1-(4-methyl-1,2,4-triazol-3-yl)cyclobutyl]pyridin-2-yl]-3-{[(3S)-3-methylpiperidin-1-yl]methyl}-7H-pyrrolo[3,4-b]pyridin-5-one] | D (values between 0.01 and 0.09: range “D.”) | C (values between 0.10 and 0.30: range “C”) | B (values between 0.31 and 0.79: range “B”) | C (values between 0.30 and 0.60: range “C”) | C (values between 0.30 and 0.60: range “C”) | B (values between 0.61 and 0.80: range “B;”) | 7.70 to 8.30 | C (values between 0.10 and 0.30: range “C”) | B (values between 0.31 and 1.00: range “B;”) | B (values between 0.31 and 1.00: range “B;”) |
| CCNc1cc(C2(c3nncn3C)CC(C)C2)cc(N2Cc3c(SC)cc(CN4CCC[C@H](C)C4)cc3C2=O)n1 (stereo partly drawn) [Compound 181, 2-[6-(ethylamino)-4-[(1r,3s)-3-methyl-1-(4-methyl-1,2,4-triazol-3-yl)cyclobutyl]pyridin-2-yl]-6-{[(3S)-3-methylpiperidin-1-yl]methyl}-4-(methylsulfanyl)-3H-isoindol-1-one] | D (values between 0.01 and 0.09: range “D.”) | C (values between 0.10 and 0.30: range “C”) | A (between 0.80 and 1.40: range “A”) | C (values between 0.30 and 0.60: range “C”) | B (values between 0.61 and 0.80: range “B;”) | X (fold over background values between 1.11 and 1.6: range “X”) | 8.30 to 9.00 | B (values between 0.31 and 1.00: range “B;”) | B (values between 0.31 and 1.00: range “B;”) | A (fold over background between 1.10 and 2.00: range “A”) |
| C[C@H]1CCCN(Cc2cc3c(c(C(F)(F)F)c2)CN(c2cc(C4(Cc5nncn5C)COC4)cc(NCc4c[nH]nn4)n2)C3=O)C1.O=C(O)C(F)(F)F [Compound 182, (S)-2-(6-(((1H-1,2,3-triazol-4-yl)methyl)amino)-4-(3-((4-methyl-4H-1,2,4-triazol-3-yl)methyl)oxetan-3-yl)pyridin-2-yl)-6-((3-methylpiperidin-1-yl)methyl)-4-(trifluoromethyl)isoindolin-1-one; trifluoroacetic acid] | D (values between 0.01 and 0.09: range “D.”) | D (values between 0.01 and 0.09: range “D.”) | D (values between 0.01 and 0.09: range “D.”) | C (values between 0.30 and 0.60: range “C”) | C (values between 0.30 and 0.60: range “C”) | C (values between 0.30 and 0.60: range “C”) | 7.70 to 8.30 | C (values between 0.10 and 0.30: range “C”) | C (values between 0.10 and 0.30: range “C”) | B (values between 0.31 and 1.00: range “B;”) |
| Cn1cnnc1CC1(c2cc(NCCC#N)nc(N3Cc4c(cc(CN5CCN(c6nccs6)CC5)cc4C(F)(F)F)C3=O)c2)COC1.O=C(O)C(F)(F)F [Compound 186, 3-((4-(3-((4-methyl-4H-1,2,4-triazol-3-yl)methyl)oxetan-3-yl)-6-(1-oxo-6-((4-(thiazol-2-yl)piperazin-1-yl)methyl)-4-(trifluoromethyl)isoindolin-2-yl)pyridin-2-yl)amino)propanenitrile; trifluoroacetic acid] | D (values between 0.01 and 0.09: range “D.”) | D (values between 0.01 and 0.09: range “D.”) | D (values between 0.01 and 0.09: range “D.”) | C (values between 0.30 and 0.60: range “C”) | C (values between 0.30 and 0.60: range “C”) | C (values between 0.30 and 0.60: range “C”) | 7.70 to 8.30 | C (values between 0.10 and 0.30: range “C”) | C (values between 0.10 and 0.30: range “C”) | B (values between 0.31 and 1.00: range “B;”) |
| C[C@H]1CCCN(Cc2cc3c(c(C(F)(F)F)c2)CN(c2cc(C4(Cc5nncn5C)COC4)cc(NC4CC(C#N)C4)n2)C3=O)C1.O=C(O)C(F)(F)F (stereo partly drawn) [Compound 190, (S)-3-((4-(3-((4-methyl-4H-1,2,4-triazol-3-yl)methyl)oxetan-3-yl)-6-(6-((3-methylpiperidin-1-yl)methyl)-1-oxo-4-(trifluoromethyl)isoindolin-2-yl)pyridin-2-yl)amino)cyclobutane-1-carbonitrile; trifluoroacetic acid] | C (values between 0.10 and 0.30: range “C”) | C (values between 0.10 and 0.30: range “C”) | C (values between 0.10 and 0.30: range “C”) | C (values between 0.30 and 0.60: range “C”) | C (values between 0.30 and 0.60: range “C”) | B (values between 0.61 and 0.80: range “B;”) | 7.70 to 8.30 | C (values between 0.10 and 0.30: range “C”) | B (values between 0.31 and 1.00: range “B;”) | B (values between 0.31 and 1.00: range “B;”) |
| Cn1cnnc1CC1(c2cccc(NC(=O)c3cc(CN4CC[C@H](OCCCCCCNC(=O)CCN5C(=O)C=CC5=O)C4)cc(C4CC4)n3)c2)COC1 [Compound 200] | C (values between 0.10 and 0.30: range “C”) | C (values between 0.10 and 0.30: range “C”) | C (values between 0.10 and 0.30: range “C”) | – | C (values between 0.30 and 0.60: range “C”) | C (values between 0.30 and 0.60: range “C”) | 7.70 to 8.30 | C (values between 0.10 and 0.30: range “C”) | C (values between 0.10 and 0.30: range “C”) | C (values between 0.10 and 0.30: range “C”) |
| C[C@H]1CCCN(Cc2cc3c(c(C(F)(F)F)c2)CN(c2cc(C4(Cc5nncn5C)COC4)cc(OCCOCCOCCOCCNC(=O)CCN4C(=O)C=CC4=O)n2)C3=O)C1 [Compound 201, 3-(2,5-dioxopyrrol-1-yl)-N-{2-[2-(2-{2-[(4-{3-[(4-methyl-1,2,4-triazol-3-yl)methyl]oxetan-3-yl}-6-(6-{[(3S)-3-methylpiperidin-1-yl]methyl}-1-oxo-4-(trifluoromethyl)-3H-isoindol-2-yl)pyridin-2-yl)oxy]ethoxy}ethoxy)ethoxy]ethyl}propanamide] | C (values between 0.10 and 0.30: range “C”) | C (values between 0.10 and 0.30: range “C”) | C (values between 0.10 and 0.30: range “C”) | – | C (values between 0.30 and 0.60: range “C”) | C (values between 0.30 and 0.60: range “C”) | 8.30 to 9.00 | C (values between 0.10 and 0.30: range “C”) | C (values between 0.10 and 0.30: range “C”) | C (values between 0.10 and 0.30: range “C”) |
